The text below walks through data of patent US20130324543A1, “REVERSAL OF HIGH BREAST CANCER RISK IN MAMMALS EXPOSED TO ESTROGENIC CHEMICALS IN UTERO BY ADULT EXPOSURE TO HDAC AND DNMT INHIBITORS” (Georgetown University, priority 2012, published 2013).

Series [1] in a line: Litter size and pup weight in F1-F3 rat generations. The settings on record: diet of the F0 dams; any of the three generations. The class given is in vivo, Sprague-Dawley rats. As to the method:
Pregnant dams were weighed once a week to monitor changes in weight gain. The birth weight of pups and number of pups per litter were recorded. To avoid litter-effect, pups were crossfostered 1-2 days after dams gave birth. Pups from 2-4 dams were pooled and housed in a litter of 8-10 pups per nursing dam (which had the same dietary/hormonal exposure during pregnancy as the pups' mothers). All pups were weaned on postnatal day 21.

In series [2] the test system is mammary tumors. The series is described as follows: Acquired tamoxifen (TAM) resistance of mammary tumors in in utero exposed rats. In kind it is in vivo. The conditions noted are these: 14-week follow-up, 7% in the control group.
The test system of series [3] is mammary tumors. The series is described as follows: DMBA-induced mammary tumorigenesis in F1-F3 offspring of rat dams fed HF or EE2 diet. The class given is in vivo, Sprague-Dawley rats. As for the experimental part:
Pregnant Sprague-Dawley rats (F0) were fed AI[…] control diet or an isocaloric AI[…] based HF diet, containing 43% energy from corn oil, throughout gestation. Another group of pregnant rats was fed AI[…] diet supplemented with 0.1 ppm ethinyl estradiol (EE2) from day 14 to day 20 of pregnancy. F1 females were mated with F1 males from the same group to produce the F2 generation. The F3 generation was produced in the same manner (FIG. 23). No sibling mating was carried out. […] AI[…] control diet (control, 17% energy from corn oil), isocaloric high fat diet (HF, 43% energy from corn oil) or ethinyl estradiol-supplemented AI[…] diet (EE2, 0.1 ppm). The HF diet was fed for dams through the duration of pregnancy (P) (21 days), while dams were fed EE2 supplemented diet between days P14-20. Once pups (F1) were born, all dams received the control diet. F1 and F2 females (n=8-10) were mated on PND 60 with males from the same group to produce the F2 and F3 generations. All F1 and F2 pregnant dams were fed control diet for the extent of pregnancy. Outcross experiments were also performed: F1 females or males exposed to EE2 or HF diet in utero were crossed with control males or females. […] Tumorigenesis (incidence and multiplicity) was monitored for 20 weeks. […] Louis, Mo.) in 1 ml of peanut oil. […] Tumor growth was measured using a caliper and the length, width, and height of each tumor were recorded. […] Differences in tumor latency and multiplicity were tested by t-test (or Mann-Whitney Rank Sum test) or one-way ANOVA (where appropriate, between groups comparisons after ANOVA were done using Dunn's multi-comparison procedure). Kaplan-Meier survival curves were used to compare differences in tumor incidence, followed by the log-rank test Tumor histopathology was analyzed.

Where [4] appears, read: F1 generation (daughters) vs controls.
[5] abbreviates: F2 generation (granddaughters) vs controls.
The mark [6] stands for this setting: F3 generation (great-granddaughters) vs controls.

`C#C[C@]1(O)CC[C@H]2[C@@H]3CCc4cc(O)ccc4[C@H]3CC[C@@]21C` [EE2, ethinyl estradiol]: in series [1], the “litter size or pups weight” value was “did not affect”. Moreover, the “acquired resistance to TAM” value in the series on mammary tumors [2] stood at 50%. Moreover, the Mammary tumor incidence entry in the series on mammary tumors [3] (setting [4]) is “higher”; in the series on mammary tumors [3] (setting [5]) it was “neither tumor incidence (p=0.68) nor multiplicity (p=0.49) was statistically different”; in the series on mammary tumors [3] (F2 outcross, control ♀ x exposed ♂), 33%; in the series on mammary tumors [3] (F2 outcross, exposed ♀ x control ♂), 62%; in the series with mammary tumors [3] (setting [6]) it was “also higher, but not statistically significant”. Besides, the mammary tumor multiplicity result is on record as “higher” in the series with mammary tumors [3] (setting [4]), “neither tumor incidence (p=0.68) nor multiplicity (p=0.49) was statistically different” in the series with mammary tumors [3] (setting [5]) and “significantly higher” in the series with mammary tumors [3] (setting [6]). Further, the tumor multiplicity result with mammary tumors [3] (F2 outcross EE2♀×C♂ vs controls) is listed as “significantly higher”.
